These compounds were tested against T1, neutrophil elastase (Homo sapiens, UniProt P08246) (assay: Human Neutrophil Elastase Assay). Conditions: substrate MeOSuc-Ala-Ala-Pro-Val-AMC, pH 7.5, room temperature.
T1 sequence (P08246 30-247 limits assumed): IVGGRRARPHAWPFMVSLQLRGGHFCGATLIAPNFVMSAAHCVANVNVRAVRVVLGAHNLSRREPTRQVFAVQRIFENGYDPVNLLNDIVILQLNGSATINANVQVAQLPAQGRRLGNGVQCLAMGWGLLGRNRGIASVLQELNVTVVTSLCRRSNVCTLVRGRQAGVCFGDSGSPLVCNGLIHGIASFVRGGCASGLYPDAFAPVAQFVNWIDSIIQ
Type: biochemical
Design: purchased Calbiochem 324681
Procedure, shortened: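 Readout: AMC fluorescence (ex 380, em 460 nm) after 60 min room-temperature reaction with 250 nM MeOSuc-AAPV-AMC, following 15 min compound–enzyme preincubation. Buffer: Tris/NaCl pH 7.5, 0.01% BSA.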
Compound CN1CCN(C(=O)N2C(=O)N(c3cccc(C(F)(F)F)c3)C3=C(C(=O)CCC3)C2c2ccc(C#N)cc2)CC1=O (stereo not shown) [Example 39.16] has an IC50 of 46.9 nM.
N#Cc1ccc(C2C3=C(CCCC3=O)N(c3cccc(C(F)(F)F)c3)C(=O)N2C(=O)NCC2CCC(=O)N2)cc1 (stereo not shown) [Example 39.17] was tested, and the IC50 was under 1 nM.
With COC1CCN(C(=O)N2C(=O)N(c3cccc(C(F)(F)F)c3)C3=C(C(=O)CCC3)C2c2ccc(C#N)cc2)CC1 (stereo not shown) [Example 39.18] the IC50 was 79.1 nM.
CS(=O)(=O)c1ccc(CNC(=O)N2C(=O)N(c3cccc(C(F)(F)F)c3)C3=C(C(=O)CCC3)C2c2ccc(C#N)cc2)nc1 (stereo not shown) [Example 39.20] was tested, and the IC50 was under 1 nM.
COC(=O)N1C(=O)N(c2cccc(C(F)(F)F)c2)C2=C(C(=O)CCC2)C1c1ccc(C#N)cc1 (stereo not shown) [Example 40, Methyl 4-(4-Cyanophenyl)-2,5-dioxo-1-(3-(trifluoromethyl)phenyl)-1,2,5,6,7,8-hexahydroquinazoline-3(4H)-carboxylate] was tested, and the IC50 was 9 nM.
COCCOC(=O)N1C(=O)N(c2cccc(C(F)(F)F)c2)C2=C(C(=O)CCC2)C1c1ccc(C#N)cc1 (stereo not shown) [Example 41, 2-Methoxyethyl 4-(4-Cyanophenyl)-2,5-dioxo-1-(3-(trifluoromethyl)phenyl)-1,2,5,6,7,8-hexahydroquinazoline-3(4H)-carboxylate] gave an IC50 of 9.1 nM.
Work on CC(C)(C)COC(=O)N1C(=O)N(c2cccc(C(F)(F)F)c2)C2=C(C(=O)CCC2)C1c1ccc(C#N)cc1 (stereo not shown) [Example 42, Neopentyl 4-(4-Cyanophenyl)-2,5-dioxo-1-(3-(trifluoromethyl)phenyl)-1,2,5,6,7,8-hexahydroquinazoline-3(4H)-carboxylate] yielded an IC50 of 88.7 nM.
CS(=O)(=O)N1C(=O)N(c2cccc(C(F)(F)F)c2)C2=C(C(=O)CCC2)C1c1ccc(C#N)cc1 (stereo not shown) [Example 43, 4-(3-(Methylsulfonyl)-2,5-dioxo-1-(3-(trifluoromethyl)phenyl)-1,2,3,4,5,6,7,8-octahydroquinazolin-4-yl)benzonitrile] was tested, and the IC50 was 4 nM.
Work on COC(=O)c1cc(S(=O)(=O)N2C(=O)N(c3cccc(C(F)(F)F)c3)C3=C(C(=O)CCC3)C2c2ccc(C#N)cc2)cs1 (stereo not shown) [Example 44, Methyl 4-(4-(4-Cyanophenylcyanophenyl)-2,5-dioxo-1-(3-(trifluoromethyl)phenyl)-1,2,5,6,7,8-hexahydroquinazolin-3(4H)-ylsulfonyl)thiophene-2-carboxylate] yielded an IC50 of 22 nM.
With CCS(=O)(=O)N1C(=O)N(c2cccc(C(F)(F)F)c2)C2=C(C(=O)CCC2)C1c1ccc(C#N)cc1 (stereo not shown) [Example 44.1] the IC50 was 5.1 nM.
CCCS(=O)(=O)N1C(=O)N(c2cccc(C(F)(F)F)c2)C2=C(C(=O)CCC2)C1c1ccc(C#N)cc1 (stereo not shown) [Example 44.2] was tested, and the IC50 was 3 nM.
In the case of CC(C)CS(=O)(=O)N1C(=O)N(c2cccc(C(F)(F)F)c2)C2=C(C(=O)CCC2)C1c1ccc(C#N)cc1 (stereo not shown) [Example 44.3], the IC50 is reported as 5.1 nM.
Work on N#Cc1ccc(C2C3=C(CCCC3=O)N(c3cccc(C(F)(F)F)c3)C(=O)N2S(=O)(=O)c2ccco2)cc1 (stereo not shown) [Example 44.4] yielded an IC50 of 15.6 nM.
Compound N#Cc1ccc(C2C3=C(CCCC3=O)N(c3cccc(C(F)(F)F)c3)C(=O)N2S(=O)(=O)c2ccccc2)cc1 (stereo not shown) [Example 44.5] has an IC50 of 34.9 nM.
With N#Cc1ccc(C2C3=C(CCCC3=O)N(c3cccc(C(F)(F)F)c3)C(=O)N2S(=O)(=O)c2cccnc2)cc1 (stereo not shown) [Example 44.6] the IC50 was 22.3 nM.
Compound Cn1ccc(S(=O)(=O)N2C(=O)N(c3cccc(C(F)(F)F)c3)C3=C(C(=O)CCC3)C2c2ccc(C#N)cc2)n1 (stereo not shown) [Example 44.7] has an IC50 of 15.9 nM.
Compound N#Cc1ccc(C2C3=C(CCCC3=O)N(c3cccc(C(F)(F)F)c3)C(=O)N2S(=O)(=O)Cc2ccccc2)cc1 (stereo not shown) [Example 44.8] has an IC50 of 9 nM.
CS(=O)(=O)CS(=O)(=O)N1C(=O)N(c2cccc(C(F)(F)F)c2)C2=C(C(=O)CCC2)C1c1ccc(C#N)cc1 (stereo not shown) [Example 44.9] was tested, and the IC50 was 3.4 nM.
With COC(=O)CCCS(=O)(=O)N1C(=O)N(c2cccc(C(F)(F)F)c2)C2=C(C(=O)CCC2)C1c1ccc(C#N)cc1 (stereo not shown) [Example 44.10, methyl 4-(4-(4-cyanophenyl)-2,5-dioxo-1-(3-(trifluoromethyl)phenyl)-1,2,5,6,7,8-hexahydroquinazolin-3(4H)-ylsulfonyl)butanoate] the IC50 was 5.2 nM.
N#Cc1ccc(C2C3=C(CCCC3=O)N(c3cccc(C(F)(F)F)c3)C(=O)N2S(=O)(=O)c2ccccc2C#N)cc1 (stereo not shown) [Example 44.11] showed an IC50 of 11.4 nM.
N#Cc1ccc(C2C3=C(CCCC3=O)N(c3cccc(C(F)(F)F)c3)C(=O)N2S(=O)(=O)C=Cc2ccccc2)cc1 (stereo not shown) [Example 44.12] showed an IC50 of 106 nM.
With COC(=O)c1cc(S(=O)(=O)N2C(=O)N(c3cccc(C(F)(F)F)c3)C3=C(C(=O)CCC3)C2c2ccc(C#N)cc2)oc1C (stereo not shown) [Example 44.13] the IC50 was 27.3 nM.
N#Cc1ccc(C2C3=C(CCCC3=O)N(c3cccc(C(F)(F)F)c3)C(=O)N2S(=O)(=O)CCCC(=O)O)cc1 (stereo not shown) [Example 45, 4-(4-(4-Cyanophenyl)-2,5-dioxo-1-(3-(trifluoromethyl)phenyl)-1,2,5,6,7,8-hexahydroquinazolin-3(4H)-ylsulfonyl)butanoic acid] gave an IC50 of 3.4 nM.
Work on N#Cc1ccc(C2C3=C(CCCC3=O)N(c3cccc(C(F)(F)F)c3)C(=O)N2S(=O)(=O)c2csc(C(=O)O)c2)cc1 (stereo not shown) [Example 46, 4-(4-(4-Cyanophenyl)-2,5-dioxo-1-(3-(trifluoromethyl)phenyl)-1,2,5,6,7,8-hexahydroquinazolin-3(4H)-ylsulfonyl)thiophene-2-carboxylic acid] yielded an IC50 of 21.5 nM.
CNC(=O)N1C(=O)N(c2cccc(C(F)(F)F)c2)C2=C(C(=O)CCC2)C1c1ccc(C#N)cc1S(C)(=O)=O (stereo not shown) [Example 47, 4-(4-Cyano-2-(methylsulfonyl)phenyl)-N-methyl-2,5-dioxo-1-(3-(trifluoromethyl)-phenyl)-1,2,5,6,7,8-hexahydroquinazoline-3(4H)-carboxamide] showed an IC50 of under 1 nM.
In the case of CS(=O)(=O)c1cc(C#N)ccc1C1C2=C(CCCC2=O)N(c2cccc(C(F)(F)F)c2)C(=O)N1C(=O)NCCO (stereo not shown) [Example 47.2], the IC50 is reported as under 1 nM.
CS(=O)(=O)c1cc(C#N)ccc1C1C2=C(CCCC2=O)N(c2cccc(C(F)(F)F)c2)C(=O)N1C(=O)NCCCO (stereo not shown) [Example 47.3] was tested, and the IC50 was under 1 nM.
CS(=O)(=O)CCNC(=O)N1C(=O)N(c2cccc(C(F)(F)F)c2)C2=C(C(=O)CCC2)C1c1ccc(C#N)cc1S(C)(=O)=O (stereo not shown) [Example 47.4] gave an IC50 of under 1 nM.
CN1C(=O)N(c2cccc(C(F)F)c2)C2=C(C(=O)CCC2)C1c1ccc(C#N)cc1S(C)(=O)=O (stereo not shown) [Example 49, 4-(1-(3-(Difluoromethyl)phenyl)-3-methyl-2,5-dioxo-1,2,3,4,5,6,7,8-octahydroquinazolin-4-yl)-3-(methylsulfonyl)benzonitrile] was tested, and the IC50 was 1.3 nM.
CNC(=O)N1C(=O)N(c2cccc(C(F)F)c2)C2=C(C(=O)CCC2)C1c1ccc(C#N)cc1S(C)(=O)=O (stereo not shown) [Example 50, 4-(4-Cyano-2-(methylsulfonyl)phenyl)-1-(3-(difluoromethyl)phenyl)-N-methyl-2,5-dioxo-1,2,5,6,7,8-hexahydroquinazoline-3(4H)-carboxamide] showed an IC50 of under 1 nM.
With CCNC(=O)N1C(=O)N(c2cccc(C(F)F)c2)C2=C(C(=O)CCC2)C1c1ccc(C#N)cc1S(C)(=O)=O (stereo not shown) [Example 51, 4-(4-Cyano-2-(methylsulfonyl)phenyl)-1-(3-(difluoromethyl)phenyl)-N-ethyl-2,5-dioxo-1,2,5,6,7,8-hexahydroquinazoline-3(4H)-carboxamide] the IC50 was under 1 nM.
N#Cc1ccc(C2NC(=O)N(c3cccc(C(F)(F)F)c3)C3=C2C(=O)CCC3)c(F)c1 (stereo not shown) [Example 52, 4-(2,5-Dioxo-1-(3-(trifluoromethyl)phenyl)-1,2,3,4,5,6,7,8-octahydroquinazolin-4-yl)-3-fluorobenzonitrile] showed an IC50 of 26.7 nM.
N#Cc1ccc(C2NC(=O)N(c3ccc(F)c(C(F)(F)F)c3)C3=C2C(=O)CCC3)cc1 (stereo not shown) [Example 52.1] showed an IC50 of 19.3 nM.
N#Cc1ccc(C2NC(=O)N(c3cc(F)cc(C(F)(F)F)c3)C3=C2C(=O)CCC3)cc1 (stereo not shown) [Example 52.2] gave an IC50 of 13.8 nM.
COc1cc(C#N)ccc1C1NC(=O)N(c2cccc(C(F)(F)F)c2)C2=C1C(=O)CCC2 (stereo not shown) [Example 53, 4-(2,5-Dioxo-1-(3-(trifluoromethyl)phenyl)-1,2,3,4,5,6,7,8-octahydroquinazolin-4-yl)-3-methoxybenzonitrile] was tested, and the IC50 was 34 nM.
Work on CCS(=O)(=O)c1cc(C#N)ccc1C1NC(=O)N(c2cccc(C(F)(F)F)c2)C2=C1C(=O)CCC2 (stereo not shown) [Example 54, 4-(2,5-Dioxo-1-(3-(trifluoromethyl)phenyl)-1,2,3,4,5,6,7,8-octahydroquinazolin-4-yl)-3-(ethylsulfonyl)benzonitrile] yielded an IC50 of 7.5 nM.
Work on Cc1cc(C#N)ccc1C1NC(=O)N(c2cccc(C(F)(F)F)c2)C2=C1C(=O)CCC2 (stereo not shown) [Example 55, 4-(2,5-Dioxo-1-(3-(trifluoromethyl)phenyl)-1,2,3,4,5,6,7,8-octahydroquinazolin-4-yl)-3-methylbenzonitrile] yielded an IC50 of 18.7 nM.
In the case of N#Cc1ccc(C2NC(=O)N(c3cccc(C(F)(F)F)c3)C3=C2C(=O)CCC3)c(Cl)c1 (stereo not shown) [Example 56, 3-Chloro-4-(2,5-dioxo-1-(3-(trifluoromethyl)phenyl)-1,2,3,4,5,6,7,8-octahydroquinazolin-4-yl)benzonitrile], the IC50 is reported as 34 nM.
Work on CS(=O)(=O)c1cc(C#N)ccc1C1NC(=O)N(c2ccnc(C(F)(F)F)c2)C2=C1C(=O)CCC2 (stereo not shown) [Example 57, 4-(2,5-Dioxo-1-(2-(trifluoromethyl)pyridin-4-yl)-1,2,3,4,5,6,7,8-octahydroquinazolin-4-yl)-3-(methylsulfonyl)benzonitrile] yielded an IC50 of 73.2 nM.
CCN1C(=O)N(c2cccc(C(F)(F)F)c2)C2=C(C(=O)CCC2)C1c1ccc(C#N)cc1S(C)(=O)=O (stereo not shown) [Example 58, 4-(3-Ethyl-2,5-dioxo-1-(3-(trifluoromethyl)phenyl)-1,2,3,4,5,6,7,8-octahydroquinazolin-4-yl)-3-(methylsulfonyl)benzonitrile] was tested, and the IC50 was 1.3 nM.

From US9115093B2, “Substituted bicyclic dihydropyrimidinones and their use as inhibitors of neutrophil elastase activity” (Boehringer Ingelheim International GmbH, priority 2013, dated 2015)
